Source: patent US11078496B2, “System for F-box hormone receptor regulated protein expression in mammalian cells” (ICAHN SCHOOL OF MEDICINE AT MOUNT SINAI, priority 2016, dated 2021)
Like-named read-outs stand apart in the source and are kept apart here.

Experiments:
[1] = molecular target: T1, AID^47-NANOG (A-NANOG) (UniProt P93830+Q7XVM8); experiment: Auxin-dependent depletion of A-NANOG in mESCs (western blot); format: cell-based, mouse
T1 construct: (encoding NP_001052659); 47-amino acid segment that corresponds to amino acids 63-109 of A. thaliana IAA17; expressed in transfected cells; host or cells: CCE mESCs (lentiviral pRAIDRS)
T1 sequence (Q7XVM8 whole entry, the tested form may be a part): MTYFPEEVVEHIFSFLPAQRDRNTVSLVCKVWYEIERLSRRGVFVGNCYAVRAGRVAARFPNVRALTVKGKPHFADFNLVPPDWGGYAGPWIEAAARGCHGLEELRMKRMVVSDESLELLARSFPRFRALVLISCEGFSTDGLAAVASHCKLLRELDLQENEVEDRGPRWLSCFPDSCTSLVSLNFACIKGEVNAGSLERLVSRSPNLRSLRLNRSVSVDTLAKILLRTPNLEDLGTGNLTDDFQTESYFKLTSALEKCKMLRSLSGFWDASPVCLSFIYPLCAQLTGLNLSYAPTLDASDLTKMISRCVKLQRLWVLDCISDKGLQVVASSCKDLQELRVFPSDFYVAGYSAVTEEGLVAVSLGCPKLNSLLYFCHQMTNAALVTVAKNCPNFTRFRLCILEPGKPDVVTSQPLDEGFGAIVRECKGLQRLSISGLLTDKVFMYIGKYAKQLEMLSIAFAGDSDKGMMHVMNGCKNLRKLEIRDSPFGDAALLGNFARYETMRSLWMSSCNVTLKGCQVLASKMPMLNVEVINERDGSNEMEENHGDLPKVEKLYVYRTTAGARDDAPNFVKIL
T1 sequence (P93830 63-109): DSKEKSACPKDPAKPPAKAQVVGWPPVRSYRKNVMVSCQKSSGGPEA
Description: FIGS. 3A-3D illustrate an auxin-degradable NANOG rescue system in mESCs. CCE mESCs were infected with pRAIDRS AID^47-NANOG (A-NANOG) or GFP-AID^47 (“GFP-A”) and selected clones with ESC morphology were analyzed for the effect of auxin (“IAA”) treatment. FIG. 3A is a western blot analysis depicting endogenous NANOG (*) and A-NANOG (**) in parental mESCs, and in the indicated clones. β-Actin serves as a loading control. Experiment was repeated three times and a representative blot is presented. FIG. 3B are images of mESC clones plated at low density, grown in the presence of ethanol (“Con”) or auxin (“IAA”) for 3-4 days and assayed for AP activity. GFP-A mESCs reached the desired confluency a day earlier and therefore the images were taken on different days. FIG. 3C are bright-field images showing representative morphology of A-NANOG mESCs following 3 days of ethanol (“Con”) or auxin (“IAA”) treatment (upper part) and merged bright-field and GFP fluorescence images of ethanol or auxin-treated GFP-A mESCs (lower part). Scale bars, 100 μm. […] All cells were subjected to the same concentration of ethanol for the duration of experiment. Quantitative real-time PCR analysis was performed for selected self-renewal and differentiation markers, and normalized expression levels are represented as a heatmap. […] See also FIGS. 4A-4F and FIG. 15. […]

[2] = system: AID-fused proteins in mammalian cells; conditions: cited from earlier work

depletion of A-NANOG ([1]; A-NANOG #2 mESCs, 50 μM auxin, 30 minutes, western blot): complete depletion
time for >95% degradation of NANOG ([1]; pRAIDRS system, auxin-dependent protein depletion): 20 to 30 min
SMILES: O=C(O)Cc1c[nH]c2ccccc12 [auxin, indole-3-acetic acid]
rapidity of auxin-dependent protein depletion ([2]; reported by Han et al.): ~90 min
rapidity of auxin-dependent protein depletion ([2]; reported by Holland et al.): 60 to 100 min
rapidity of auxin-dependent protein depletion ([2]; reported by Lambrus et al.): 10 to 30 min
rapidity of auxin-dependent protein depletion ([2]; reported by Rodriguez-Bravo et al.): > 120 min
